{"source": "patent US20070166547A1", "about": "“Use of a layer consisting of hydrophobic linear, or two-dimensional polycyclic aromatics as a barrier layer or an encapsulation and electric components constructed with a layer of this type and comprising organic polymers” (priority 2003, published 2007)", "key": {"[1]": {"tested_on": "embyronic fibroblasts of mouse NIH-3T3", "test": "Endocellular pHi of fibroblasts by microspectrofluorimetry (FDA, BCECF-AM)", "format": "cell-based", "conditions": "10 mkM in medium with serum", "description": "The effect of the compounds according to the invention on the endocellular pH, embyronic fibroblasts of mouse NIH-3T3 supplied by the All-Russian Collection of Cellular Cultures of the Institute of Cytology of the Russian Academy of Sciences St. Petersburg was investigated. The cells were grown in the DMEM (Sigma) medium containing 2.2 g/l of sodium bicarbonate with addition of 80.0 mkg/ml of gentamicin and 10.0% embryonal veal serum at a temperature of 37° C. in an atmosphere containing 5.0% of carbon dioxide. For these experiments use was also made of a medium buffer with 5.0 mM of HEPES and 15.0 mM of sodium bicarbonate without serum or with addition of 5.0% serum. The cells were calculated with the help of a hemocytometer. A share of the dead cells was determined by colouring trypan blue.\nThe measurements of the endocellular pHi were carried out with the help of colorants FDA (Sigma) and BCECF-AM (Calbiochem) on a microspectrofluorimeter by a standard technique (Koshevoy Yu. V., Akatov V. S., Grobova M. E. Microspectrofluorimeter for measuring endocellular pH (micro pH)”. Devices and equipment for studies in the field of physical-and-chemical biology and biotechnology. Pushchino, 1990. P. 8-14).\nThe cells at a temperature of 37° C. were colored within 5 minutes with 5.0 mkM PDA that before the colouring was prepared from a 10.0 mM solution in acetone by dilution for 30 minutes in a phosphatic buffer to 0.1 mM or 2.0 mkM 1.0 mM solution BCECF-AM in DMSO.\nThe two-wave method of determining pHi was used based on the ratio intensities of fluorescence of the cells on two wavelengths (Akatov V. S. et all), “Endocellular pH and substrate dependence of proliferation of fibroblasts of Chinese hamster, Cytology, 1991, 33 (7), p. 86-94). The fluorescence was excited by light at λ=490 nm, the emission was recorded simultaneously with two photomultipliers on wavelengths λ=535 nm and λ=570 nm. The K-ratio of the fluorescence on two wavelengths was determined with a deduction of the background fluorescence of the medium near the investigated cells for 40-60 individual cells, which are then averaged taking into account the measurement error. A thermostatically controlled table was used that allowed measurements to be conducted at a temperature of 37° C. An account was taken for the photodynamic damage of the pigmented cells during-long-time continuous illumination by excited light. The readings were taken from a section of the preparation exposed to light for not more than 5 minutes.\nThe calibration curves for determining the absolute pHi values by magnitude K were constructed using the Thomas technique (Thomas J. A., Bushbaum R. N., Zimniak A. w Racker E. “Intracellular pH measurements in Ehrlich ascites tumor cells utilizing spectroscopic probe generated in situ”, Biochemistry, 1979, v. 18, p. 2210-2218), for which case the pigmented cells treated for 5-10 minutes with carboxyacidic nigericyn (Calbiochem) at a concentration of 5-10 mkg/ml was placed in a solution with a high content of potassium—130 mM KCl, 1.0 mM MgCl2, 20.0 mM of HEPES) and with pH values from 6.2 to 7.6. The K values were measured in the media with different pH assuming that pHi of the cells equals to the pH of the medium due to the action of nigericyn, which exchanges potassium ions for protons and at a high content of potassium in the medium counterbalances the pH of the medium and cells. Calibration curves were used based on the fluorescence of same medium with addition of 5.0 mkM of fluorescence or BCECF were used to the control the stability of the of the instrument readings.\nThe correctness of the technique was confirmed in the experiments on measurements of pH values of cells treated with protonofor monencine raising pH of the cells due to replacement of sodium ions by protons, and by determining the dependence of the change of pHi on the change of the pH of the medium. […]"}, "[2]": {"tested_on": "embyronic fibroblasts of mouse NIH-3T3", "conditions": "1-5 mkM; 15-20 minutes; cells of mice NSO and NIH-3T3; cited from earlier work"}}}
{"smiles": "CC[C@@]1([C@@H]2O[C@@H]([C@H]3O[C@@](O)(CO)[C@H](C)C[C@@H]3C)C[C@@H]2C)CC[C@H]([C@]2(C)CC[C@]3(C[C@H](O)[C@@H](C)[C@@H]([C@@H](C)[C@@H](OC)[C@H](C)C(=O)O)O3)O2)O1", "note": "[monensine, reference compound]", "values": [{"measurement": "rise of pHi", "setting": "[1]", "result": 0.12, "unit": "pH unit"}, {"measurement": "increase of pHi", "setting": "[2]", "result": 0.2, "unit": "unit"}]}
